{"source": "patent US12306171B2", "about": "“Method for detecting indicator of immune-related disease” (MANDOM CORPORATION, priority 2018, dated 2025)", "key": {"[1]": {"tested_on": "adhesive cell in peripheral blood mononuclear cells collected from an asthmatic patient", "assay": "Morphology and adhesive cells of peripheral blood mononuclear cells from an asthmatic patient after culture in steroid-containing medium", "type": "cell-based, human", "settings": "10 μM steroid, 0.1 v/v % DMSO, 10 v/v % FBS RPMI1640, 37° C., 24 hours; asthmatic patient PBMC; FIG. 10", "method": "Using 10 mL of peripheral blood collected from an asthmatic patient and 15 mL of a human lymphocyte-separation medium (manufactured by GE Healthcare, trade name: Ficoll-Paque PLUS), peripheral blood mononuclear cells were separated from the peripheral blood, according to a density gradient centrifugation method. Some of the separated peripheral blood mononuclear cells were cultured in a steroid-containing medium (RPMI1640 medium containing 10 μM hydrocortisone or 10 μM dexamethasone, 0.1 v/v % DMSO and 10 v/v % FBS) or a control medium (RPMI1640 medium containing 0.1 v/v % DMSO and 10 v/v % FBS) in a culture vessel at 37° C. for 24 hours. The morphology and state of the obtained cell were observed by an inverted phase contrast microscope (manufactured by Leica Microsystems, trade name: DM IL LED). […]"}, "[2]": {"tested_on": "primary cilium of immune cell (peripheral blood mononuclear cells from an asthmatic patient)", "assay": "Formation rate of primary cilium in immune cell after culture in steroid-containing medium", "type": "cell-based, human", "settings": "10 μM steroid, 37° C., 24 hours; nonadherent cells from asthmatic patient PBMC; FIG. 11", "method": "Using 10 mL of peripheral blood collected from an asthmatic patient and 15 mL of a human lymphocyte-separation medium (manufactured by GE Healthcare, trade name: Ficoll-Paque PLUS), peripheral blood mononuclear cells were separated from the peripheral blood, according to a density gradient centrifugation method. Some of the separated peripheral blood mononuclear cells were fixed with 4 v/v % PFA-containing PBS solution. The fixed cells were blocked and permeabilized by incubating the cells in a blocking/permeabilizing agent, to give a sample containing uncultured cells.\nSome of the separated peripheral blood mononuclear cells were cultured in a steroid-containing medium (RPMI1640 medium containing 10 μM hydrocortisone or 10 μM dexamethasone, 0.1 v/v % DMSO and 10 v/v % FBS) at 37° C. for 24 hours. Then, nonadherent cells suspended in each medium were collected. Immediately after collection, each of the collected cells was fixed with 4 v/v % PFA-containing PBS solution. […]\nNext, the total number of immune cells and the number of primary cilia in an immune cell were obtained by using observations of cells contained in each sample. Then, the formation rate of a primary cilium in an immune cell was calculated in accordance with the formula (Ic): [Formation rate of primary cilium in immune cell]=[(Number of primary cilia in immune cell)/(Total number of immune cells)]×100 (Ic). […]"}}}
{"smiles": "C[C@]12CCC(=O)C=C1CC[C@@H]1[C@@H]2[C@@H](O)C[C@@]2(C)[C@H]1CC[C@]2(O)C(=O)CO", "note": "[hydrocortisone]", "values": [{"measurement": "presence of adhesive cell after culture (morphology, phase contrast microscope)", "setting": "[1]", "result": "the adhesive cell disappears"}, {"measurement": "formation rate of a primary cilium of the immune cell in the nonadherent cell, versus control medium", "setting": "[2]", "result": "significantly lower"}]}
